Reference: ChEMBL document CHEMBL5050844 (2019)

Legend:
Type in all cases: functional, T cell line
[1] = Induction of anti-CD3/CD28 antibodies-stimulated human T cell activation at 4 uM assessed fold increase in IL-2 secretion measured by ELISA assay
[2] = Induction of anti-CD3 antibodies-stimulated human T cell activation at 8 uM assessed fold increase in CD25 expression measured by ELISA assay
[3] = Induction of anti-CD3/CD28 antibodies-stimulated human T cell activation at 0.3 uM assessed fold increase in CD25 expression measured by ELISA assay
[4] = Induction of anti-CD3 antibodies-stimulated human T cell activation at 1 uM assessed fold increase in IL-2 secretion measured by ELISA assay
[5] = Induction of anti-CD3/CD28 antibodies-stimulated human T cell activation at 0.3 uM assessed fold increase in IL-2 secretion measured by ELISA assay
[6] = Induction of anti-CD3/CD28 antibodies-stimulated human T cell activation at 1 uM assessed fold increase in CD25 expression measured by ELISA assay
[7] = Induction of anti-CD3 antibodies-stimulated human T cell activation at 1 uM assessed fold increase in CD25 expression measured by ELISA assay
[8] = Induction of anti-CD3/CD28 antibodies-stimulated human T cell activation at 4 uM assessed fold increase in CD25 expression measured by ELISA assay
[9] = Induction of anti-CD3/CD28 antibodies-stimulated human T cell activation at 1 uM assessed fold increase in IL-2 secretion measured by ELISA assay
[10] = Induction of anti-CD3 antibodies-stimulated human T cell activation at 8 uM assessed fold increase in IL-2 secretion measured by ELISA assay

Row | Compound | fold change (FC) [1] | fold change (FC) [2] | fold change (FC) [3] | fold change (FC) [4] | fold change (FC) [5] | fold change (FC) [6] | fold change (FC) [7] | fold change (FC) [8] | fold change (FC) [9] | fold change (FC) [10]
1 | C[C@H](Cc1nncn1C)c1cccc(NC(=O)c2cc(C(F)(F)F)n[nH]2)c1 | 1.01 | 0.601 | 1.01 | 0.051 | 1.01 | 1.01 | 0.601 | 1.01 | 1.01 | 0.101
2 | C[C@H](Cc1nncn1C)c1cccc(NC(=O)c2cccc(S(C)(=O)=O)n2)c1 | 2.51 | <=0.6 | 1.01 | 0.051 | 1.01 | >=1.76 | <=0.6 | >=1.76 | 1.01 | 0.051
3 | C[C@H](Cc1nncn1C)c1cccc(NC(=O)c2cc(S(N)(=O)=O)cc(C(F)(F)F)n2)c1 | 1.01 | >=1.001 | 1.01 | <=0.05 | <=1 | 1.01 | 0.801 | 1.01 | <=1 | 0.051
4 | CNC(=O)COc1ccc2cnc(C(=O)Nc3cccc([C@H](C)Sc4nncn4C)c3)cc2c1 | 1.01 | 0.801 | 1.01 | <=0.05 | <=1 | 1.01 | <=0.6 | 1.01 | 1.01 | <=0.05
5 | C[C@H](Sc1nncn1C)c1ccnc(N2Cc3c(cccc3C(F)(F)F)C2=O)c1 | 2.51 | <=0.6 | <=1 | <=0.05 | 2.51 | <=1 | <=0.6 | <=1 | 2.51 | <=0.05
6 | C[C@H](Sc1nncn1C)c1cccc(NC(=O)c2cc3cc(OCC(=O)NCCN)ccc3cn2)c1.Cl | 1.01 | 0.601 | <=1 | <=0.05 | <=1 | <=1 | 0.601 | 1.01 | <=1 | <=0.05
7 | C[C@H](Sc1nncn1C)c1cccc(NC(=O)c2cc(C(F)(F)F)cc(C3CC3)n2)c1 | 1.01 | <=0.6 | 1.01 | <=0.05 | <=1 | 1.01 | <=0.6 | 1.31 | <=1 | <=0.05
8 | Cn1cnnc1C(F)(F)[C@](C)(F)c1cccc(NC(=O)c2nc3c(C(F)(F)F)cccc3[nH]2)c1 | 2.51 | 0.601 | 1.01 | 0.051 | 1.01 | 1.01 | 0.601 | 1.01 | 1.01 | 0.151
9 | Cn1cnnc1C(F)(F)[C@](C)(F)c1cccc(N2Cc3c(cc(-c4cncc(F)c4)cc3C(F)(F)F)C2=O)c1 | 2.51 | 0.801 | <=1 | 0.101 | 1.01 | 1.01 | 0.601 | 1.01 | 2.51 | 0.151
10 | Cc1conc1C[C@@H](C)c1cccc(N2Cc3c(cccc3C(F)(F)F)C2=O)c1 | 1.01 | 0.801 | 1.01 | 0.051 | <=1 | <=1 | 0.601 | 1.01 | <=1 | 0.151
11 | C[C@H](Sc1nncn1C)c1cccc(NC(=O)c2cc(C(C)(C)O)c(Cl)cn2)c1 | 1.01 | 0.601 | 1.01 | <=0.05 | 1.01 | 1.01 | <=0.6 | 1.01 | 1.01 | <=0.05
12 | Cn1cnnc1C[C@H](c1cccc(N2Cc3c(cccc3C(F)(F)F)C2=O)c1)C(F)(F)F | 1.01 | 0.801 | 1.01 | 0.051 | 1.01 | 1.01 | 0.601 | 1.01 | 1.01 | 0.101
13 | C[C@H](Sc1nncn1C)c1cccc(NC(=O)c2cc(C(F)(F)F)cc(C(F)(F)F)n2)c1 | 1.01 | 0.601 | <=1 | <=0.05 | <=1 | <=1 | <=0.6 | 1.01 | <=1 | <=0.05
14 | C[C@H](Cc1nocc1C(F)(F)F)c1cccc(N2Cc3c(cc(C(=O)N4CC[C@H](O)C4)cc3C(F)(F)F)C2=O)c1 | 2.51 | >=1.001 | 1.01 | 0.051 | 1.01 | 1.01 | 0.601 | 1.31 | 1.01 | >=0.201
15 | C[C@H](Cc1nncn1C)c1cccc(NC(=O)c2cc(C(=O)N3C[C@@H](O)[C@H](F)C3)ccn2)c1 | 2.51 | 0.801 | <=1 | 0.151 | <=1 | 1.01 | 0.601 | 1.31 | 1.01 | >=0.201
16 | C[C@H](Cc1nncn1C)c1cccc(NC(=O)c2cc(C3(O)COC3)cc(C(F)(F)F)n2)c1 | 5 | >=1.001 | >=1.76 | <=0.05 | <=1 | >=1.76 | 0.601 | >=1.76 | 1.01 | 0.101
17 | Cc1[nH]cnc1CC(C)c1cccc(N2Cc3c(cccc3C(F)(F)F)C2=O)c1 (stereo not given) | <=1 | <=0.6 | <=1 | 0.101 | <=1 | <=1 | <=0.6 | 1.01 | <=1 | 0.101
18 | Cn1cnnc1CC1(c2cccc(NC(=O)c3ccnc(C(F)(F)F)n3)c2)COC1 | 2.51 | >=1.001 | 1.01 | 0.051 | 1.01 | 1.01 | 0.601 | 1.01 | 2.51 | 0.151
19 | CN1CCN(c2cc3c(c(C(F)(F)F)c2)CN(c2cccc([C@@](C)(F)C(F)(F)c4nncn4C)c2)C3=O)CC1 | 2.51 | >=1.001 | 1.01 | 0.051 | 1.01 | 1.01 | 0.601 | 1.01 | 1.01 | 0.151
20 | C[C@H](Sc1nncn1C)c1cccc(NC(=O)c2cncc(C(F)(F)F)n2)c1 | 1.01 | 0.601 | <=1 | <=0.05 | <=1 | 1.01 | <=0.6 | 1.01 | 1.01 | <=0.05
21 | Cc1conc1C[C@@H](C)c1cccc(NC(=O)c2ccnc(C(F)(F)F)n2)c1 | 2.51 | >=1.001 | 1.01 | 0.051 | 1.01 | 1.01 | 0.801 | 1.01 | 1.01 | 0.101
22 | C[C@H](Sc1nncn1C)c1cccc(NC(=O)c2cc(Cl)cc(C(F)(F)F)n2)c1 | 1.01 | 0.801 | 1.01 | <=0.05 | 1.01 | 1.01 | 0.601 | 1.01 | 1.01 | 0.051
